Laboratory results reported in ChEMBL document CHEMBL4507260 (2021).

Key:
Settings in all cases: Compound concentration 1000.0 nM
[1] = biological target: Serine/threonine-protein kinase Nek6 (Homo sapiens) (UniProt Q9HC98)
[2] = biological target: Ephrin type-B receptor 3 (Homo sapiens) (UniProt P54753)
[3] = biological target: Mast/stem cell growth factor receptor Kit (Homo sapiens) (UniProt P10721)
[4] = biological target: Cyclin-G-associated kinase (Homo sapiens) (UniProt O14976)
[5] = biological target: Atypical kinase COQ8A, mitochondrial (Homo sapiens) (UniProt Q8NI60)
[6] = biological target: Serine/threonine-protein kinase SIK1 (Homo sapiens) (UniProt P57059)
[7] = biological target: Serine/threonine-protein kinase PAK 2 (Homo sapiens) (UniProt Q13177)
[8] = biological target: Bone morphogenetic protein receptor type-1B (Homo sapiens) (UniProt O00238)
[9] = biological target: Homeodomain-interacting protein kinase 1 (Homo sapiens) (UniProt Q86Z02)
[10] = biological target: Serine/threonine-protein kinase Chk1 (Homo sapiens) (UniProt O14757)
[11] = biological target: Serine/threonine-protein kinase 24 (Homo sapiens) (UniProt Q9Y6E0)
[12] = biological target: TGF-beta receptor type-2 (Homo sapiens) (UniProt P37173)
[13] = biological target: Serine/threonine-protein kinase pim-2 (Homo sapiens) (UniProt Q9P1W9)
[14] = biological target: STE20-like serine/threonine-protein kinase (Homo sapiens) (UniProt Q9H2G2)
[15] = biological target: Protein kinase C delta type (Homo sapiens) (UniProt Q05655)
[16] = biological target: Serine/threonine-protein kinase MARK1 (Homo sapiens) (UniProt Q9P0L2)
[17] = biological target: Tyrosine-protein kinase ITK/TSK (Homo sapiens) (UniProt Q08881)
[18] = test system: Epidermal growth factor receptor (Homo sapiens), P00533 [L858R]
[19] = biological target: Ribosomal protein S6 kinase alpha-1 (Homo sapiens) (UniProt Q15418)
[20] = biological target: Casein kinase I isoform gamma-3 (Homo sapiens) (UniProt Q9Y6M4)
[21] = biological target: Mitogen-activated protein kinase kinase kinase kinase 5 (Homo sapiens) (UniProt Q9Y4K4)
[22] = biological target: Mitogen-activated protein kinase 6 (Homo sapiens) (UniProt Q16659)
[23] = biological target: Calcium/calmodulin-dependent protein kinase type 1D (Homo sapiens) (UniProt Q8IU85)
[24] = test system: Phosphatidylinositol 4,5-bisphosphate 3-kinase catalytic subunit alpha isoform (Homo sapiens), P42336 [M1043I]
[25] = biological target: Ephrin type-A receptor 7 (Homo sapiens) (UniProt Q15375)
[26] = test system: Phosphatidylinositol 4,5-bisphosphate 3-kinase catalytic subunit alpha isoform (Homo sapiens), P42336 [H1047Y]
[27] = biological target: Non-receptor tyrosine-protein kinase TYK2 (Homo sapiens) (UniProt P29597)
[28] = biological target: Serine/threonine-protein kinase MAK (Homo sapiens) (UniProt P20794)
[29] = biological target: 3-phosphoinositide-dependent protein kinase 1 (Homo sapiens) (UniProt O15530)
[30] = biological target: Serine/threonine-protein kinase PAK 5 (Homo sapiens) (UniProt Q9P286)
[31] = test system: Receptor-type tyrosine-protein kinase FLT3 (Homo sapiens), P36888 [D835Y]
[32] = biological target: Dual specificity protein kinase TTK (Homo sapiens) (UniProt P33981)
[33] = biological target: Dual specificity tyrosine-phosphorylation-regulated kinase 2 (Homo sapiens) (UniProt Q92630)
[34] = biological target: Leucine-rich repeat serine/threonine-protein kinase 2 (Homo sapiens) (UniProt Q5S007)
[35] = biological target: SNF-related serine/threonine-protein kinase (Homo sapiens) (UniProt Q9NRH2)
[36] = biological target: Ribosomal protein S6 kinase alpha-5 (Homo sapiens) (UniProt O75582)
[37] = test system: Phosphatidylinositol 4,5-bisphosphate 3-kinase catalytic subunit alpha isoform (Homo sapiens), P42336 [C420R]
[38] = biological target: Serine/threonine-protein kinase TAO1 (Homo sapiens) (UniProt Q7L7X3)
[39] = biological target: cGMP-dependent protein kinase 2 (Homo sapiens) (UniProt Q13237)
[40] = biological target: Macrophage-stimulating protein receptor (Homo sapiens) (UniProt Q04912)
[41] = biological target: Phosphatidylinositol 4-kinase beta (Homo sapiens) (UniProt Q9UBF8)
[42] = test system: Receptor-type tyrosine-protein kinase FLT3 (Homo sapiens), P36888 [N841I]
[43] = biological target: Phosphorylase b kinase gamma catalytic chain, skeletal muscle/heart isoform (Homo sapiens) (UniProt Q16816)
[44] = biological target: Mitogen-activated protein kinase kinase kinase 11 (Homo sapiens) (UniProt Q16584)
[45] = biological target: SRSF protein kinase 2 (Homo sapiens) (UniProt P78362)

Measured: residual activity

Serine/threonine-protein kinase pim-2 (Homo sapiens), sequence (Q9P1W9 whole entry, looked up): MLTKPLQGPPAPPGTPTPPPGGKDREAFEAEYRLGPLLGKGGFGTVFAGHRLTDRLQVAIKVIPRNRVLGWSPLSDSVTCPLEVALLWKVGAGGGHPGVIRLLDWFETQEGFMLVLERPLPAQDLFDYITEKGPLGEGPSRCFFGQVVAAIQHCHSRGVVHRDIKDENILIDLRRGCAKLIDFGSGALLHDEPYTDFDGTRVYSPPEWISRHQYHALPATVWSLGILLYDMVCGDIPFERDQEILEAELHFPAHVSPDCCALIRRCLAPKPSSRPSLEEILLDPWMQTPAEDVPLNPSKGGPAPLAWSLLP
Mitogen-activated protein kinase kinase kinase kinase 5 (Homo sapiens), sequence (Q9Y4K4 whole entry, looked up): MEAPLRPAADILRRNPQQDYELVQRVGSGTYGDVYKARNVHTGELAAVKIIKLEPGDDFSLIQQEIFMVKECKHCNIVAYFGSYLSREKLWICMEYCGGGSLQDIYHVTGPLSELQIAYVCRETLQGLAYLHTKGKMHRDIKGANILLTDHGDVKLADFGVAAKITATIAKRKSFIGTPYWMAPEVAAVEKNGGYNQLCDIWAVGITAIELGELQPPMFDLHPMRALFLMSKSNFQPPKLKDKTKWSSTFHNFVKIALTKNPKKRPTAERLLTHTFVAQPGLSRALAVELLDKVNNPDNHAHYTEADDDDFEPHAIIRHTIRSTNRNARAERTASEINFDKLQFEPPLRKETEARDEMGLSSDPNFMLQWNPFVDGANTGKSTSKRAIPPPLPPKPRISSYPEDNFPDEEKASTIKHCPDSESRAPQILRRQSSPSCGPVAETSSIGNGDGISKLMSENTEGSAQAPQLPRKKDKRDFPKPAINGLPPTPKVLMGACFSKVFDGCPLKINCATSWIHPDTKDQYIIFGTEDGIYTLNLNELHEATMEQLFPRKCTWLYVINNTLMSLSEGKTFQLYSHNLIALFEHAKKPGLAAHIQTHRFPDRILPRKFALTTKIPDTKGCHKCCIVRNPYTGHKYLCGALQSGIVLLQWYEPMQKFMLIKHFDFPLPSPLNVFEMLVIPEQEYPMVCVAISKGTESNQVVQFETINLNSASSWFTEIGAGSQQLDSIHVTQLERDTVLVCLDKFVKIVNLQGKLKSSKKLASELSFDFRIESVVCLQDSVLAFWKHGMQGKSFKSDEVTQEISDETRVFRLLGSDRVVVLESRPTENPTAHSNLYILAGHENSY
TGF-beta receptor type-2 (Homo sapiens), sequence (P37173 whole entry): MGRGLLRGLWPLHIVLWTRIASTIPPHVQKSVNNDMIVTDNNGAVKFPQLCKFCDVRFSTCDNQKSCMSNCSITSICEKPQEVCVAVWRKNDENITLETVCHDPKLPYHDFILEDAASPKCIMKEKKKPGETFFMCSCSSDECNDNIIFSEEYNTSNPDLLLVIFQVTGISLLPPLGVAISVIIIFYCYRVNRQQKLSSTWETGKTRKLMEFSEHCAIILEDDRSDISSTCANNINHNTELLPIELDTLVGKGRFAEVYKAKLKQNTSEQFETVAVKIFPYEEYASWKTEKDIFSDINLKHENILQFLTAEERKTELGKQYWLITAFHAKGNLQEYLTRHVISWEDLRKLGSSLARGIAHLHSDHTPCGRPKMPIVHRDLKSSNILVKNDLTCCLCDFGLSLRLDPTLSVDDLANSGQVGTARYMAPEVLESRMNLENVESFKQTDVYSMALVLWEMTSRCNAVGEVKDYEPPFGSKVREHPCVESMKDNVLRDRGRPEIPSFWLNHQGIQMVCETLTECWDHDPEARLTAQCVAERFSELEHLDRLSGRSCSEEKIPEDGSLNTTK
Homeodomain-interacting protein kinase 1 (Homo sapiens), sequence (Q86Z02 whole entry, looked up): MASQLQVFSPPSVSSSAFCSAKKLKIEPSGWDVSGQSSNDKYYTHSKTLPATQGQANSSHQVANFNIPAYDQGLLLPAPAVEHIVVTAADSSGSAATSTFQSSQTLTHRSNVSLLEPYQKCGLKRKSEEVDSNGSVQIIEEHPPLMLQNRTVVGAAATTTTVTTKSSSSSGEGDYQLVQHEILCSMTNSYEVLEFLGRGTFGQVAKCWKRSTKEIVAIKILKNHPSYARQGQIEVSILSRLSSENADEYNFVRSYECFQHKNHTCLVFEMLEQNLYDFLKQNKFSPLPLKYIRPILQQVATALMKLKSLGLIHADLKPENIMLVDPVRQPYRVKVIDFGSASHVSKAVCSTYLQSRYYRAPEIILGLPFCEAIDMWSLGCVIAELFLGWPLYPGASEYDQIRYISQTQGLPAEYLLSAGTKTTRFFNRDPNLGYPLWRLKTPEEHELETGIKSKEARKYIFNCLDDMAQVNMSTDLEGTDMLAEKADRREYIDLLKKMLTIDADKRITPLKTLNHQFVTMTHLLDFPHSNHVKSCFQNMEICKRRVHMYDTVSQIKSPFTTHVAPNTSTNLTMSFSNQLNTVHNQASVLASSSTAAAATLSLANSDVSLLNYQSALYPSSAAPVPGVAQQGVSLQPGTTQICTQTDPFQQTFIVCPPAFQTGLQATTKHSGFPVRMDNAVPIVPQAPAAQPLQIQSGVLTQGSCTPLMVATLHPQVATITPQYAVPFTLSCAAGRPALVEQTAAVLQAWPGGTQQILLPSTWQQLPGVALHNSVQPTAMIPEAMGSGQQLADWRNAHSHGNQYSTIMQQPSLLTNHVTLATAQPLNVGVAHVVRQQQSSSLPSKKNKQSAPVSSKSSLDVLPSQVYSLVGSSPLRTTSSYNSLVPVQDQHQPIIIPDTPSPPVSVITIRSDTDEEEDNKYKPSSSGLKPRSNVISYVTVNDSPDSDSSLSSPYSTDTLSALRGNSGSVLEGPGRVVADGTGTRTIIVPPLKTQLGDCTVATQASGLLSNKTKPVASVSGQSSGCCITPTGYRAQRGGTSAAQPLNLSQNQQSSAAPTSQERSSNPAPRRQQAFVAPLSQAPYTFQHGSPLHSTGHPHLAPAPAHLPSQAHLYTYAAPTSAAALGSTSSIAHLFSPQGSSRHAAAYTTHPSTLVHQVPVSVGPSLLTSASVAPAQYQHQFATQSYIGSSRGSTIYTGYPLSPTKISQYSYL
Dual specificity tyrosine-phosphorylation-regulated kinase 2 (Homo sapiens), sequence (Q92630 whole entry): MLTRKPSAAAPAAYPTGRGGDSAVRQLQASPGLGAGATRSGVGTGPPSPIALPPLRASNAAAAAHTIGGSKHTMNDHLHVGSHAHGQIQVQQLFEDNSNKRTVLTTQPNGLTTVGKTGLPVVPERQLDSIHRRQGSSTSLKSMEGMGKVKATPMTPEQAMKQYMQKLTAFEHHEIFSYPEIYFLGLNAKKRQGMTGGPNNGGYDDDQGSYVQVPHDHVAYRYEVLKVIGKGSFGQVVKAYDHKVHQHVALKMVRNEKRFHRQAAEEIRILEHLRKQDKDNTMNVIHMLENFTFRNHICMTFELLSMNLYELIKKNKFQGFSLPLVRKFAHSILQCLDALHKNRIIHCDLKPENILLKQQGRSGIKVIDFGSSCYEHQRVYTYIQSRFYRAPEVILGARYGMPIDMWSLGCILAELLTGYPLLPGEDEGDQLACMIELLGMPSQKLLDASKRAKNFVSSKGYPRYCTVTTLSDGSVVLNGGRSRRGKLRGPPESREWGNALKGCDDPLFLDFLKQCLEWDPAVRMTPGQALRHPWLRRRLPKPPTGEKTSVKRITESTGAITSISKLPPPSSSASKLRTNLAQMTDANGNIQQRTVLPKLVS
Ribosomal protein S6 kinase alpha-5 (Homo sapiens), sequence (O75582 whole entry, looked up, canonical isoform): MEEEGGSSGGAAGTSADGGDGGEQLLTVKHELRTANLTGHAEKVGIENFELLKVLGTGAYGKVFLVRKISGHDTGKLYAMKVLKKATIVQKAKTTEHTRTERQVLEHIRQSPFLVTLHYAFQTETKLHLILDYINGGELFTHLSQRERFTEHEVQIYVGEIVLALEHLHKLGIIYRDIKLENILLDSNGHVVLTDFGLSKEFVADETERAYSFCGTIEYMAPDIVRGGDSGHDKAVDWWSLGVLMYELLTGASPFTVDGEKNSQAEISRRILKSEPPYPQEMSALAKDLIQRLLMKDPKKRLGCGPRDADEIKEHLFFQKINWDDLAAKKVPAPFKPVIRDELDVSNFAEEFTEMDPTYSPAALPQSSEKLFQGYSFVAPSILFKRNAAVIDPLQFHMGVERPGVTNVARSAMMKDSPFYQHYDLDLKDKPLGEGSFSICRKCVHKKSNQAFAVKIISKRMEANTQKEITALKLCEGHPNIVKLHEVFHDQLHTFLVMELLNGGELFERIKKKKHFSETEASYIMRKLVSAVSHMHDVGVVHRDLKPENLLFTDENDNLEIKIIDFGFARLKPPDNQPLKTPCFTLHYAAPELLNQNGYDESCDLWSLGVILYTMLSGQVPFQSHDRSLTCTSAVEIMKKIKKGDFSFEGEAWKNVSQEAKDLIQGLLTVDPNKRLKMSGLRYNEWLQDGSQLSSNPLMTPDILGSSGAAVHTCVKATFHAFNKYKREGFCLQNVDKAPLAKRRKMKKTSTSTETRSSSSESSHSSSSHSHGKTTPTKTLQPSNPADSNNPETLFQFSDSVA
Serine/threonine-protein kinase MAK (Homo sapiens), sequence (P20794 whole entry): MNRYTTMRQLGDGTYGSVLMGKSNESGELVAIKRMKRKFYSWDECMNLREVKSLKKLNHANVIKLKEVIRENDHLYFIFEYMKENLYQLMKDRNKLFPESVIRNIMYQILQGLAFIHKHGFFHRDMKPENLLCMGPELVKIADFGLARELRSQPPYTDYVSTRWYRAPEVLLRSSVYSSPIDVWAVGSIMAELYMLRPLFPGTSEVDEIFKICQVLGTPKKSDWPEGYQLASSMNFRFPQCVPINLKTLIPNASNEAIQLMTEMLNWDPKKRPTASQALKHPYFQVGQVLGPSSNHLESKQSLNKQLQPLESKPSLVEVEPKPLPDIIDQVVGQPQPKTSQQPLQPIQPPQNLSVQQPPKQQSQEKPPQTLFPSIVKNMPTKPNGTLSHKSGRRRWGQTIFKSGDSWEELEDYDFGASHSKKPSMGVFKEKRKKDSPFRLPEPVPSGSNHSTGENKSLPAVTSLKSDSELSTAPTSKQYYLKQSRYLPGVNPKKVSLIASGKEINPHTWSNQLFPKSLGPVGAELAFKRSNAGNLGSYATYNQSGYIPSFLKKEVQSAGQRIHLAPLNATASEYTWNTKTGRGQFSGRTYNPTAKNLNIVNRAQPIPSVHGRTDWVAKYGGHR

CSc1cccnc1N1CCN(Cc2nc3ccccc3[nH]2)CC1 [A-769]
inactive: [1] 98% | [2] 93% | [3] 100% | [4] 99% | [5] 100% | [6] 100% | [7] 100% | [8] 80% | [9] 78% | [10] 94% | [11] 100% | [12] 99% | [13] 96% | [14] 100% | [15] 100% | [16] 100% | [17] 97% | [18] 100% | [19] 100% | [20] 86% | [21] 100% | [22] 100% | [23] 100% | [24] 94% | [25] 93% | [26] 100% | [27] 100% | [28] 100% | [29] 99% | [30] 97% | [31] 100% | [32] 98% | [33] 81% | [34] 97% | [35] 100% | [36] 100% | [37] 100% | [38] 100% | [39] 94% | [40] 100% | [41] 73% | [42] 100% | [43] 96% | [44] 100% | [45] 59%

c1ccc(N2CCN(Cc3nc4ccccc4[nH]3)CC2)nc1 [ABT-724]
inactive: [1] 100% | [2] 100% | [3] 100% | [4] 100% | [5] 98% | [6] 100% | [7] 100% | [8] 100% | [9] 99% | [10] 100% | [11] 100% | [12] 88% | [13] 85% | [14] 93% | [15] 100% | [16] 100% | [17] 100% | [18] 100% | [19] 100% | [20] 100% | [21] 100% | [22] 100% | [23] 96% | [24] 87% | [25] 100% | [26] 79% | [27] 100% | [28] 100% | [29] 89% | [30] 100% | [31] 100% | [32] 100% | [33] 100% | [34] 99% | [35] 100% | [36] 85% | [37] 100% | [38] 100% | [39] 100% | [40] 100% | [41] 100% | [42] 100% | [43] 100% | [44] 100% | [45] 100%
